Tests used:
Format in all cases: in vivo
[1] = system: Tetranychus urticae; assay: Tetranychus urticae (two-spotted spider mite): feeding/contact activity; conditions: 192 h, application rate 200 ppm, mixed population (mobile stages), 8 days after infestation, read-out: mortality
Description: Bean leaf discs on agar in 24-well microtiter plates were sprayed with aqueous test solutions prepared from 10'000 ppm DMSO stock solutions. After drying the leaf discs were infested with a mite population of mixed ages. The samples were assessed for mortality on mixed population (mobile stages) 8 days after infestation.

[2] = system: Diabrotica balteata; assay: Diabrotica balteata (corn root worm), sprayed maize sprouts; conditions: 96 h, application rate 200 ppm, L2 larvae, 4 days after infestation, read-out: effect in at least one of the two categories (mortality or growth inhibition)
How it was run: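 Read-out at 4 days post-infestation: mortality and growth inhibition relative to untreated samples. Test solutions (200 ppm, from DMSO stocks) were sprayed onto agar-held maize sprouts, which after drying received 6–10 L2 larvae per well.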

[3] = system: Euschistus heros; assay: Euschistus heros (neotropical brown stink bug), sprayed soybean leaves; conditions: 120 h, application rate 200 ppm, N2 nymphs, 5 days after infestation, read-out: effect in at least one of the two categories (mortality or growth inhibition)
How it was run: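 Scored 5 days post-infestation versus untreated controls, for both mortality and growth inhibition: N2 nymphs placed on agar-mounted soybean leaves previously sprayed at 200 ppm with aqueous test solutions from DMSO stocks and left to dry.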

[4] = system: Myzus persicae; assay: Myzus persicae (green peach aphid): feeding/contact activity; conditions: 144 h, application rate 200 ppm, aphid population of mixed ages, 6 days after infestation, read-out: mortality
Description: (§1) Sunflower leaf discs were placed onto agar in a 24-well microtiter plate and sprayed with aqueous test solutions prepared from 10'000 ppm DMSO stock solutions. After drying, the leaf discs were infested with an aphid population of mixed ages. The samples were assessed for mortality 6 days after infestation.

[5] = system: Spodoptera littoralis; assay: Spodoptera littoralis (Egyptian cotton leaf worm), sprayed cotton leaf discs; conditions: foliar, 72 h, application rate 200 ppm, L1 larvae, 3 days after infestation, read-out: control (mortality, anti-feeding effect, growth inhibition)
How it was run: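 Five first-instar larvae placed on dried cotton leaf discs (on agar) previously sprayed with aqueous dilutions of 10'000 ppm DMSO stocks. Scored at 3 days against untreated discs for mortality, feeding inhibition and growth inhibition; any category above untreated counts as control.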

[6] = system: Plutella xylostella; assay: Plutella xylostella (diamond back moth), artificial diet; conditions: 120 h, application rate 200 ppm, L2 larvae, 5 days after infestation, read-out: effect in at least one of the two categories (mortality or growth inhibition)
How it was run: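 L2 larvae (10-15 per well) fed on compound-treated, dried artificial diet; test solutions diluted in water from 10'000 ppm DMSO stocks. Readout 5 days post-infestation as mortality or growth inhibition versus untreated diet, with at least 80% effect at 200 ppm as threshold.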

[7] = system: Thrips tabaci; assay: Thrips tabaci (onion thrips): feeding/contact activity; conditions: 144 h, application rate 200 ppm, Thrips population of mixed ages, 6 days after infestation, read-out: mortality
Description: as §1, with “on” for “onto”, “in” for “in a”, “plates” for “plate”, “drying” for “drying,”, “a Thrips” for “an aphid”

CN(C1CC1)S(=O)(=O)N1C[C@@H](NC(=O)c2ccc(C3=NO[C@@](c4cc(Cl)cc(Cl)c4)(C(F)(F)F)C3)cc2Cl)CO1 [Compound A153]
≥ 80%: mortality at 200 ppm [1] | percent effect (mortality or growth inhibition) at 200 ppm [2] | percent effect (mortality or growth inhibition) at 200 ppm [3] | mortality at 200 ppm [4] | mortality at 200 ppm [5] | percent effect (mortality or growth inhibition) at 200 ppm [6] | mortality at 200 ppm [7]

O=C(N[C@H]1CON(S(=O)(=O)NC2CC2)C1)c1ccc(C2=NO[C@@](c3cc(Cl)cc(Cl)c3)(C(F)(F)F)C2)cc1Cl [Compound A154]
≥ 80%: mortality at 200 ppm [1] | percent effect (mortality or growth inhibition) at 200 ppm [2] | percent effect (mortality or growth inhibition) at 200 ppm [3] | mortality at 200 ppm [4] | mortality at 200 ppm [5] | percent effect (mortality or growth inhibition) at 200 ppm [6] | mortality at 200 ppm [7]

Cc1cc(C2=NO[C@@](c3cc(Cl)cc(Cl)c3)(C(F)(F)F)C2)ccc1C(=O)N[C@H]1CON(S(=O)(=O)N(C)C2CC2)C1 [Compound A156]
≥ 80%: mortality at 200 ppm [1] | percent effect (mortality or growth inhibition) at 200 ppm [2] | percent effect (mortality or growth inhibition) at 200 ppm [3] | mortality at 200 ppm [4] | mortality at 200 ppm [5] | percent effect (mortality or growth inhibition) at 200 ppm [6] | mortality at 200 ppm [7]

CCN(C1CC1)S(=O)(=O)N1C[C@@H](NC(=O)c2ccc(C3=NO[C@@](c4cc(Cl)cc(Cl)c4)(C(F)(F)F)C3)cc2Cl)CO1 [Compound A157]
≥ 80%: mortality at 200 ppm [1] | percent effect (mortality or growth inhibition) at 200 ppm [2] | percent effect (mortality or growth inhibition) at 200 ppm [3] | mortality at 200 ppm [4] | mortality at 200 ppm [5] | percent effect (mortality or growth inhibition) at 200 ppm [6] | mortality at 200 ppm [7]

C#CCN(CC)S(=O)(=O)N1C[C@@H](NC(=O)c2ccc(C3=NO[C@@](c4cc(Cl)cc(Cl)c4)(C(F)(F)F)C3)cc2Cl)CO1 [Compound A161, 2-chloro-4-[(5S)-5-(3,5-dichlorophenyl)-5-(trifluoromethyl)-4H-isoxazol-3-yl]-N-[(4R)-2-[ethyl(prop-2-ynyl)sulfamoyl]isoxazolidin-4-yl]benzamide]
≥ 80%: mortality at 200 ppm [1] | percent effect (mortality or growth inhibition) at 200 ppm [2] | percent effect (mortality or growth inhibition) at 200 ppm [3] | mortality at 200 ppm [4] | mortality at 200 ppm [5] | percent effect (mortality or growth inhibition) at 200 ppm [6] | mortality at 200 ppm [7]

CC(=O)N(C)S(=O)(=O)N1CC(NC(=O)c2ccc(C3=NO[C@@](c4cc(Cl)c(F)c(Cl)c4)(C(F)(F)F)C3)cc2C)CO1 (stereo partly shown) [Compound A162]
≥ 80%: mortality at 200 ppm [1] | percent effect (mortality or growth inhibition) at 200 ppm [2] | percent effect (mortality or growth inhibition) at 200 ppm [3] | mortality at 200 ppm [4] | mortality at 200 ppm [5] | percent effect (mortality or growth inhibition) at 200 ppm [6] | mortality at 200 ppm [7]

Cc1cc(C2=NO[C@](c3cc(Cl)c(F)c(Cl)c3)(C(F)(F)F)C2)ccc1C(=O)N[C@H]1CON(S(=O)(=O)CCl)C1 [Compound A164, N-[(4R)-2-(chloromethylsulfonyl)-1,2-oxazolidin-4-yl]-4-[(5R)-5-(3,5-dichloro-4-fluorophenyl)-5-(trifluoromethyl)-4H-1,2-oxazol-3-yl]-2-methylbenzamide]
≥ 80%: mortality at 200 ppm [1] | percent effect (mortality or growth inhibition) at 200 ppm [2] | percent effect (mortality or growth inhibition) at 200 ppm [3] | mortality at 200 ppm [4] | mortality at 200 ppm [5] | percent effect (mortality or growth inhibition) at 200 ppm [6] | mortality at 200 ppm [7]

Cc1cc(C2=NO[C@](c3cc(Cl)cc(Cl)c3)(C(F)(F)F)C2)ccc1C(=O)N[C@H]1CON(S(=O)(=O)CCl)C1 [Compound A166, N-[(4R)-2-(chloromethylsulfonyl)-1,2-oxazolidin-4-yl]-4-[(5R)-5-(3,5-dichlorophenyl)-5-(trifluoromethyl)-4H-1,2-oxazol-3-yl]-2-methylbenzamide]
≥ 80%: mortality at 200 ppm [1] | percent effect (mortality or growth inhibition) at 200 ppm [2] | percent effect (mortality or growth inhibition) at 200 ppm [3] | mortality at 200 ppm [4] | mortality at 200 ppm [5] | percent effect (mortality or growth inhibition) at 200 ppm [6] | mortality at 200 ppm [7]

Cc1cc(C2=NO[C@](c3cc(Cl)c(F)c(Cl)c3)(C(F)(F)F)C2)ccc1C(=O)N[C@H]1CON(S(=O)(=O)NC2(C#N)CC2)C1 [Compound A168]
≥ 80%: mortality at 200 ppm [1] | percent effect (mortality or growth inhibition) at 200 ppm [2] | percent effect (mortality or growth inhibition) at 200 ppm [3] | mortality at 200 ppm [4] | mortality at 200 ppm [5] | percent effect (mortality or growth inhibition) at 200 ppm [6] | mortality at 200 ppm [7]

Cc1cc(C2=NO[C@@](c3cc(F)cc(C(F)(F)F)c3)(C(F)(F)F)C2)ccc1C(=O)N[C@@H]1CON(S(=O)(=O)N(C)C)C1 [Compound A169]
≥ 80%: mortality at 200 ppm [1] | percent effect (mortality or growth inhibition) at 200 ppm [2] | percent effect (mortality or growth inhibition) at 200 ppm [3] | mortality at 200 ppm [4] | mortality at 200 ppm [5] | percent effect (mortality or growth inhibition) at 200 ppm [6] | mortality at 200 ppm [7]

Cc1cc(C2=NO[C@@](c3cc(F)cc(C(F)(F)F)c3)(C(F)(F)F)C2)ccc1C(=O)N[C@@H]1CON(S(C)(=O)=O)C1 [Compound A172]
≥ 80%: mortality at 200 ppm [1] | percent effect (mortality or growth inhibition) at 200 ppm [2] | percent effect (mortality or growth inhibition) at 200 ppm [3] | mortality at 200 ppm [4] | mortality at 200 ppm [5] | percent effect (mortality or growth inhibition) at 200 ppm [6] | mortality at 200 ppm [7]

Cc1cc(C2=NO[C@@](c3cc(Cl)cc(Cl)c3)(C(F)(F)F)C2)ccc1C(=O)N[C@@H]1CON(S(=O)(=O)CBr)C1 [Compound A173, N-[(4S)-2-(bromomethylsulfonyl)-1,2-oxazolidin-4-yl]-4-[(5S)-5-(3,5-dichlorophenyl)-5-(trifluoromethyl)-4H-1,2-oxazol-3-yl]-2-methylbenzamide]
≥ 80%: mortality at 200 ppm [1] | percent effect (mortality or growth inhibition) at 200 ppm [2] | percent effect (mortality or growth inhibition) at 200 ppm [3] | mortality at 200 ppm [4] | mortality at 200 ppm [5] | percent effect (mortality or growth inhibition) at 200 ppm [6] | mortality at 200 ppm [7]

Cc1cc(C2=NO[C@@](c3cc(Cl)cc(Cl)c3)(C(F)(F)F)C2)ccc1C(=O)N[C@@H]1CON(S(=O)(=O)CC(=O)O)C1 [Compound A174, 2-[[(4S)-4-[[4-[(5S)-5-(3,5-dichlorophenyl)-5-(trifluoromethyl)-4H-1,2-oxazol-3-yl]-2-methylbenzoyl]amino]-1,2-oxazolidin-2-yl]sulfonyl]acetic acid]
≥ 80%: mortality at 200 ppm [1] | percent effect (mortality or growth inhibition) at 200 ppm [2] | percent effect (mortality or growth inhibition) at 200 ppm [3] | mortality at 200 ppm [4] | mortality at 200 ppm [5] | percent effect (mortality or growth inhibition) at 200 ppm [6] | mortality at 200 ppm [7]

Cc1cc(C2=NO[C@@](c3cc(Cl)cc(Cl)c3)(C(F)(F)F)C2)ccc1C(=O)N[C@@H]1CON(S(N)(=O)=O)C1 [Compound A178, 4-[(5S)-5-(3,5-dichlorophenyl)-5-(trifluoromethyl)-4H-1,2-oxazol-3-yl]-2-methyl-N-[(4S)-2-sulfamoyl-1,2-oxazolidin-4-yl]benzamide]
≥ 80%: mortality at 200 ppm [1] | percent effect (mortality or growth inhibition) at 200 ppm [2] | percent effect (mortality or growth inhibition) at 200 ppm [3] | mortality at 200 ppm [4] | mortality at 200 ppm [5] | percent effect (mortality or growth inhibition) at 200 ppm [6] | mortality at 200 ppm [7]

CNS(=O)(=O)N1C[C@@H](NC(=O)c2ccc(C3=NO[C@](c4cc(F)cc(C(F)(F)F)c4)(C(F)(F)F)C3)cc2C)CO1 [Compound A180]
≥ 80%: mortality at 200 ppm [1] | percent effect (mortality or growth inhibition) at 200 ppm [2] | percent effect (mortality or growth inhibition) at 200 ppm [3] | mortality at 200 ppm [4] | mortality at 200 ppm [5] | percent effect (mortality or growth inhibition) at 200 ppm [6] | mortality at 200 ppm [7]

CNS(=O)(=O)N1C[C@H](NC(=O)c2ccc(C3=NO[C@@](c4ccc(F)c(C(F)(F)F)c4)(C(F)(F)F)C3)cc2C)CO1 [Compound A181]
≥ 80%: mortality at 200 ppm [1] | percent effect (mortality or growth inhibition) at 200 ppm [2] | percent effect (mortality or growth inhibition) at 200 ppm [3] | mortality at 200 ppm [4] | mortality at 200 ppm [5] | percent effect (mortality or growth inhibition) at 200 ppm [6] | mortality at 200 ppm [7]
